The nature of data set [1]: in vitro. The following applies: human.
Data set [2] in a line: in vitro. The following applies: mouse.
The nature of data set [3]: physchem. The following applies: pH 7.4.
Data set [4] is described as follows: logD 7.4. The following applies: pH 7.4.
A short description of data set [5]: Metabolic stability CLint, human (Tables H1, H2).
Data set [6] is described as follows: Metabolic stability CLint, mouse (Tables H1, H2).
The subject of data set [7] is TEAD. Description: WB primary assay (SAR tables F1, F3A). The class given is biochemical.
Data set [8] has as its system H226. Description: H226 growth inhibition (SAR tables). The class given is cell-based. The following applies: for GI50: Homo sapiens, NCI-H226.
For data set [9], the system named is KNS62. The data set is described as follows: KNS62 growth inhibition (SAR tables). The data set is classed as cell-based.
Data set [10] is described as follows: Aqueous solubility (Aq Sol). The data set is classed as physicochemical.
A short description of data set [11]: Metabolic stability MLM. The following applies: for Met stab MLM, 15 min / Met stab MLM, 60 min: % parent remained per Table G2.
Data set [12] can be described thus: Pharmacokinetics / oral bioavailability in male CD-1 mice. The class given is in vivo. The following applies: for AUC(0-inf): Table F2A; for half-life: read-out: t1/2, β (converted). An excerpt:
Example G. Oral Bioavailability of MGH-CP-715 in Male CD-1Mice

The nature of data set [13]: Metabolic stability in mouse hepatic microsomes (Scripps Florida DMPK Core). The following applies: for half-life / microsomal CLint: mouse, liver microsomes; for half-life: 1 mg/mL hepatic microsomes; for microsomal CLint: hepatic microsomes, read-out: Intrinsic Clearance, Mouse (Clint); for metabolic stability (in words): Tables E1 and E2, human and mouse microsomes. The class given is in vitro ADME.

In data set [14] the test system is H226 cells. The data set is described as follows: Cell proliferation assay (MTT), H226. The following applies: 6 days, FIG. 8C.
For data set [15], the target named is TEAD2 (Homo sapiens, UniProt Q15562). Description: Inhibition of TEAD2 auto-palmitoylation in vitro. The following applies: FIG. 1; 0.05 and 0.5 μM for 30 mins.
Sequence of TEAD2 (Q15562 whole entry): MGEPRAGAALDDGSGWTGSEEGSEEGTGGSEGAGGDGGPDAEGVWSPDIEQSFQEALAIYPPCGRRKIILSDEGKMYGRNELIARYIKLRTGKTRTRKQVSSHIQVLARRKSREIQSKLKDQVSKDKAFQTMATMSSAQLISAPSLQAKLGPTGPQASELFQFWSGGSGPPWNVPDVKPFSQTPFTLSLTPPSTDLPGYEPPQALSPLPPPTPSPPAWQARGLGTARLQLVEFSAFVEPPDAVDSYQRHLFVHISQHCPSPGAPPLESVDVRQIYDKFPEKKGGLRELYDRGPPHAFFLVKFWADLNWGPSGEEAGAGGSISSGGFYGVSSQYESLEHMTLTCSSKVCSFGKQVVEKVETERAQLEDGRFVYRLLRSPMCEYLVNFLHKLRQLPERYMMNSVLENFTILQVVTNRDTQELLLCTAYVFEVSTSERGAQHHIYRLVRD
Data set [16] can be described thus: Metabolic stability in human hepatic microsomes (Scripps Florida DMPK Core). The data set is classed as in vitro ADME. The following applies: liver microsomes; for half-life: 1 mg/mL hepatic microsomes; for microsomal CLint: hepatic microsomes, read-out: Intrinsic Clearance, Human (Clint).
Where [17] appears, read: male, CD-1, mouse, in vivo, 1 mg/Kg IV.
[18] abbreviates: male, CD-1, mouse, in vivo, 10 mg/Kg PO.

Read-outs that look alike come from different tables or passages of the source. Some results are limits rather than exact numbers.

On to `NC(=O)c1cncc(OC(=O)N2CCC(CCc3cccc(C(=O)N4CCCC4)c3)CC2)c1`, for which the CLint scaled was 86 mL/min/kg in data set [1] and 90 mL/min/kg in data set [2]. Further, the log distribution coefficient (logD) in data set [3] came to 2.6.

Regarding `O=C(NCCc1cccc(F)c1)C1CCN(C(=O)Oc2ccccc2)CC1`, in data set [4], the logD came to 2.59. Moreover, the CLint scaled was 54 mL/min/kg in data set [5] and 87 mL/min/kg in data set [6].

In data set [4], `O=C(Nc1ccccc1)C1CCN(C(=O)Oc2cccnc2)CC1` gave a logD of 2.16. Moreover, the CLint human entry in [5] was “no depletion (stable)”. The same molecule displayed a CLint scaled in data set [6] of 47 mL/min/kg.

For `C[C@@H]1CN(C(=O)Nc2ccccc2)[C@@H](C)CN1C(=O)c1cccc(OCCC2CCCCC2)c1` [MGH-CP-709], in data set [7], the “WB: % inh. @ 1 μM” value was 45% and the “WB: % inh. @ 10 μM” value is reported as 77%. This molecule also had a 50% growth inhibitory concentration (GI50) in data set [8] of 1.97 µM. For the same molecule, in data set [9], the “KNS62: value at 1 μM” value is reported as 28 and the “KNS62: value at 10 μM” value is recorded as 46. The “Aq Sol” value in data set [10] worked out at 2 µM. The Met stab MLM, 15 min in [11] (15 min) was 26%. The Met stab MLM, 60 min in [11] (60 min) was under 5%.

`CC1CN(C(=O)Nc2ccccc2)CCN1C(=O)c1cccc(OCCC2CCCCC2)c1` (stereo not drawn) [MGH-CP-710]: in data set [7], the “WB: % inh. @ 1 μM” value is reported as 54% and the “WB: % inh. @ 10 μM” value turned out to be 81%. In data set [8], this molecule had a 50% growth inhibitory concentration (GI50) of 1.04 µM. Further, in data set [9], the “KNS62: value at 1 μM” value amounted to 35 and the “KNS62: value at 10 μM” value was 51. In data set [10], the “Aq Sol” value is under 2 µM. The Met stab MLM, 15 min in data set [11] (15 min) is 41%. Moreover, in data set [11] (60 min), the Met stab MLM, 60 min is under 5%.

For `O=C(Oc1ccccc1)N1CCN(C(=O)c2cccc(OCCC3CCCCC3)c2)CC1` [MGH-CP-714], in data set [7], the “WB: % inh. @ 1 μM” value was determined as 16% and the “WB: % inh. @ 10 μM” value was 94%. This molecule returned a concentration for 50% growth inhibition (GI50) in [8] of 2.64 µM. For the same molecule, in data set [9], the “KNS62: value at 1 μM” value came to 10 and the “KNS62: value at 10 μM” value is 48. For the same molecule, the “Aq Sol” value in data set [10] is under 2 µM. Also, the Met stab MLM, 15 min in data set [11] (15 min) was determined as 29%. Further, the Met stab MLM, 60 min in [11] (60 min) was under 5%.

In the case of `O=C(Nc1ccccc1)N1CCN(Cc2cccc(OCCC3CCCCC3)c2)CC1` [MGH-CP-715], in [7], the “WB: % inh. @ 1 μM” value amounted to 35% and the “WB: % inh. @ 10 μM” value turned out to be 95%. In addition, the “H226: value at 1 μM” value in [8] (1 μM) is given as 16. Also, the “H226: value at 10 μM” value in data set [8] (10 μM) was 69. In data set [9], the “KNS62: value at 1 μM” value is listed as 4 and the “KNS62: value at 10 μM” value was 57. In data set [10], the “Aq Sol” value is under 2 µM. Moreover, in [12] (10 mg/Kg PO versus 1 mg/Kg IV), the “F (oral bioavailability)” value was about 5.7%. The bioavailability in data set [12] (male, CD-1, mouse, in vivo, oral, 10 mg/Kg, 10 mg/Kg PO versus 1 mg/Kg IV, read-out: F (oral bioavailability)) was about 5%. Also, in data set [12] (setting [17]), the exposure AUC(0-t) amounted to 663 ng·h/mL, the mean residence time MRT amounted to 88.2 min, the clearance was 22.6 mL/min/kg and the area under the curve AUC(0-inf) came out at 736 ng·h/mL. Moreover, the half-life in [12] (setting [17]) was 223 min. Also, the Cmax in data set [12] (male, CD-1, mouse, in vivo, 1 mg/Kg IV, read-out: C0/Cmax (C0)) worked out at 834 ng/mL. Besides, in [12] (male, CD-1, mouse, in vivo, 1 mg/Kg IV, read-out: VSS), the Vd was found to be 3.61 L/kg. Further, in data set [12] (setting [18]), the exposure AUC(0-t) is 394 ng·h/mL, the MRT is 157 min, the time to peak (Tmax) worked out at 15 min and the total exposure AUC(0-inf) stood at 422 ng·h/mL. In data set [12] (setting [18]), the half-life was 112 min. In data set [12] (male, CD-1, mouse, in vivo, 10 mg/Kg PO, read-out: C0/Cmax (Cmax)), the Cmax was determined as 108 ng/mL. In addition, in [12] (mouse, in vivo), the “clearance (in words)” value is reported as “low” and the “volume of distribution (in words)” value is “high”. Moreover, in data set [11] (15 min, Table G2), the “% Parent remained MLM, 15 min” value was determined as 66%. Moreover, in data set [11] (15 min), the Met stab MLM, 15 min came to 66%. For the same molecule, in data set [11] (60 min, Table G2), the “% Parent remained MLM, 60 min” value is reported as 15%. Further, the Met stab MLM, 60 min in data set [11] (60 min) is 15%.

As to `O=C(Nc1ccccc1)N1CCN(C(=O)c2ccnc(OCCC3CCCCC3)c2)CC1` [MGH-CP-716], in [7], the “WB: % inh. @ 1 μM” value was 59% and the “WB: % inh. @ 10 μM” value is listed as 96%. Further, in data set [8], the “activity in cellular assays (in words)” value was “active” and halving of growth (GI50) required 0.236 µM. In data set [9], the “KNS62: value at 1 μM” value is reported as 54 and the “KNS62: value at 10 μM” value came out at 60. For the same molecule, the “MLM stability (in words)” value in data set [11] is “not improved”. The Met stab MLM, 15 min in data set [11] (15 min) was 40%. Further, in [11] (60 min), the Met stab MLM, 60 min was under 5%.

`O=C(Nc1ccccc1)N1C[C@@H]2C[C@H]1CN2C(=O)c1cccc(OCCC2CCCCC2)c1` [MGH-CP-717]: in data set [7], the “activity in primary assay (in words)” value was “inactive”, the “WB: % inh. @ 1 μM” value is −2% and the “WB: % inh. @ 10 μM” value came to 22%. Also, the “MLM stability (in words)” value in data set [11] is recorded as “poor”. For the same molecule, the Met stab MLM, 15 min in data set [11] (15 min) is 6%. In data set [11] (60 min), the Met stab MLM, 60 min is under 5%.

For `O=C(Oc1ccccc1)N1CCN(Cc2cccc(OCCC3CCCCC3)c2)CC1` [MGH-CP-718], in data set [7], the “activity in primary assay (in words)” value is “inactive”, the “WB: % inh. @ 1 μM” value is reported as −4% and the “WB: % inh. @ 10 μM” value amounted to 11%. Further, the Met stab MLM, 15 min in data set [11] (15 min) amounted to 59%. In addition, the Met stab MLM, 60 min in data set [11] (60 min) is 13%. Besides, the “MLM stability (in words)” value in data set [11] (mouse, microsomes) is “moderately stable”.

Turning to `O=C(Nc1ncccn1)N1CCN(C(=O)c2cccc(OCCC3CCCCC3)c2)CC1` [TM23], in data set [4], the logD worked out at 2.38. For the same molecule, the intrinsic clearance (CLint scaled) in data set [5] came out at 109 mL/min/kg; in data set [6], 156 mL/min/kg.

As to `O=C(Nc1ccccc1)N1CCN(C(=O)c2cccc(OCCC3CCOCC3)c2)CC1` [TM45, N-phenyl-4-(3-(2-(tetrahydro-2H-pyran-4-yl)ethoxy)benzoyl)piperazine-1-carboxamide], in [13], the half-life was 11.2 min and the microsomal CLint came out at 62 µL/min/mg. For the same molecule, in data set [14], the “H226 anti-proliferative potency relative to TM2 (in words)” value was “less potent than TM2”. In addition, the “inhibition of TEAD2 auto-palmitoylation (in words)” value in data set [15] is listed as “significantly decrease the activities”.

Regarding `Nc1cccc(NC(=O)N2CCN(C(=O)c3cccc(OCCC4CCCCC4)c3)CC2)c1` [TM93], in [16], the half-life worked out at 11.1 min and the microsomal CLint amounted to 62 µL/min/mg. In data set [13], the “metabolic stability (in words)” value is recorded as “improved metabolic stability”, the half-life was determined as 16.7 min and the microsomal CLint was determined as 41 µL/min/mg.

As to `O=C(Nc1ccccc1)N1CCN(C2(c3cccc(OCCc4ccccc4)c3)COC2)CC1` [TM97], in [13], the half-life stood at 1.7 min and the microsomal CLint was found to be 415 µL/min/mg.

As for `O=C(Nc1ccccc1)N1CCN([S+]([O-])c2cccc(OCCc3ccccc3)c2)CC1` (stereo not drawn) [TM100], in [16], the half-life turned out to be 5.8 min and the microsomal CLint was 120 µL/min/mg. Also, in [13], the “metabolic stability (in words)” value is reported as “improved metabolic stability”, the half-life was 9.6 min and the microsomal CLint is 72 µL/min/mg.

Regarding `Nc1ccc(NC(=O)N2CCN(C(=O)c3cccc(OCCC4CCCCC4)c3)CC2)cc1` [TM112, N-(4-aminophenyl)-4-(3-(2-cyclohexylethoxy)benzoyl)piperazine-1-carboxamide], the “H226 anti-proliferative potency relative to TM2 (in words)” value in [14] is “less potent than TM2”.
